Laboratory results published in US6562387B2, “Ambient stable beverage and process of making” (priority 2000, dated 2003).
Values after ≈ are worked out from the molar mass of the structure shown. Like-named read-outs stand apart in the source and are kept apart here.

Experiments:
[1] = Minimum inhibitory concentration (MIC) of antimicrobials / essential oils; type: cell-based
Text: The minimum inhibitory concentration (MIC) is given for each compound.
In each case the respective minimum inhibitory concentration (MIC) and their specific preferred concentration is also given.

[2] = tested on: yeast Saccharomyces cerevisiae X2180-1B; details: RTD tea pH 3.4, 1-175 ppm cinnamic acid, 1-250 ppm DMDC, 14 days at 25° C.
Description: Tubes were inoculated with 10^4cells of the yeast Saccharomyces cerevisiae X2180-1B. Immediately following inoculation, dimethyl dicarbonate, DMDC was added at concentrations ranging from 1-250 ppm.
Tubes were inoculated with 10^4 cells of the yeast Saccharomyces cerevisiae X2180-1B. Immediately following inoculation, dimethyl dicarbonate, DMDC was added at concentrations ranging from 1-250 ppm.

[3] = tested on: yeast Saccharomyces cerevisiae X2180-1B; details: synthetic soft drink pH 3.4, 1-175 ppm cinnamic acid, 1-250 ppm DMDC, 14 days at 25° C.
Description: Synthetic soft drink contained glucose, 8%w/v, citric acid 3 g/l, potassium orthophosphate 1 g/l, magnesium chloride 0.1 g/g and yeast extract 0.1 g/l. […] Tubes were inoculated with 10^4 cells of the yeast Saccharomyces cerevisiae X2180-1B. Immediately following inoculation, dimethyl dicarbonate, DMDC was added at concentrations ranging from 1-250 ppm.

[4] = cited from earlier work
[5] = tested on: mould; details: cited from earlier work
[6] = Table I, preferred essential oils, test organism not given, read-out: MIC (ppm)
[7] = Table II, particularly preferred essential oils, test organism not given
[8] = 25 ppm citral dimethyl acetal together with 35 ppm cumic alcohol
[9] = 100 ppm essential oil component
[10] = Table I, preferred essential oils, test organism not given

Compound: CCCCCCCCO [1-Octanol]
- MIC [1, 6]: 247 µg/mL (≈ 1900 µM)

Compound: CC(=O)C(=O)c1ccccc1 [1-Phenyl-1,2-propanedione]
- MIC [1, 6]: 222 µg/mL (≈ 1500 µM)

Compound: CCCCCCCCCCCO [1-Undecanol]
- MIC [1, 6]: 14 µg/mL (≈ 81.2 µM)

Compound: CC(=O)OCCC1CCCCC1 [2-Cyclohexylethyl acetate]
- MIC [1, 6]: 102 µg/mL

Compound: CCC=C(C)C=O [2-Methyl-2-pentenal]
- MIC [1, 6]: 1270 µg/mL (≈ 13000 µM)

Compound: CC(C)CCCC(C)CCO (stereo not drawn) [3,7-Dimethyl-1-octanol]
- tubes supporting yeast growth, comparison with control FIG. 1 ([2]; 50 ppm essential oil component): very substantially fewer tubes supporting yeast growth
- MIC [1, 6]: 15.8 µg/mL (≈ 99.8 µM)
- MIC (ppm) [1, 7]: 15.8 ppm
- tubes supporting yeast growth, comparison with control FIG. 11 ([3]; 50 ppm essential oil component): very substantially fewer tubes supporting yeast growth

Compound: CC(=O)OCCc1scnc1C [4-Methyl-5-thiazoleethanol acetate]
- MIC [1, 6]: 1110 µg/mL

Compound: CC(C)(C)C1CCC(=O)CC1 [4-tert-Butylcyclohexanone]
- MIC [1, 6]: 462 µg/mL (≈ 3000 µM)

Compound: CC(C)CC=C(C=O)c1ccccc1 [5-Methyl-2-phenyl-2-hexenal]
- MIC [1]: 162 µg/mL (≈ 860 µM)

Compound: O=C(OCc1ccccc1)c1ccc(O)cc1 [Benzyl-4-hydroxybenzoate]
- MIC [1, 6]: 68 µg/mL (≈ 298 µM)

Compound: C=C(C)C1CC=C(C)C(=O)C1 (stereo not drawn) [Carvone]
- MIC [1, 6]: 300 µg/mL (≈ 2000 µM)

Compound: O=CC=Cc1ccccc1 [Cinnamaldehyde]
- MIC [1, 6]: 66 µg/mL (≈ 499 µM)

Compound: COC(C=C(C)CCC=C(C)C)OC [Citral dimethyl acetal]
- tubes supporting yeast growth, comparison with control FIG. 1 [2, 8]: very substantially fewer tubes supporting yeast growth
- tubes supporting yeast growth, comparison with control FIG. 1 [2, 9]: very substantially fewer tubes supporting yeast growth
- MIC [1, 6]: 198 µg/mL (≈ 998 µM)
- MIC (ppm) [1, 7]: 198 ppm
- tubes supporting yeast growth, comparison with control FIG. 11 [3, 8]: very substantially fewer tubes supporting yeast growth
- tubes supporting yeast growth, comparison with control FIG. 11 [3, 9]: very substantially fewer tubes supporting yeast growth

Compound: CC(C)=CCCC(C)=CC=O [Citral]
- tubes supporting yeast growth, comparison with control FIG. 1 [2, 9]: very substantially fewer tubes supporting yeast growth
- MIC [1, 6]: 228 µg/mL (≈ 1500 µM)
- MIC (ppm) [1, 7]: 228 ppm
- tubes supporting yeast growth, comparison with control FIG. 11 [3, 9]: very substantially fewer tubes supporting yeast growth

Compound: CC(C)=CCCC(C)CCO (stereo not drawn) [Citronellol]
- MIC [1, 6]: 125 µg/mL (≈ 800 µM)

Compound: CC(C)c1ccc(CO)cc1 [Cumic alcohol]
- tubes supporting yeast growth, comparison with control FIG. 1 [2, 8]: very substantially fewer tubes supporting yeast growth
- tubes supporting yeast growth, comparison with control FIG. 1 [2, 9]: very substantially fewer tubes supporting yeast growth
- MIC (ppm) [1, 10]: 450 ppm
- MIC (ppm) [1, 7]: 450 ppm
- tubes supporting yeast growth, comparison with control FIG. 11 [3, 8]: very substantially fewer tubes supporting yeast growth
- tubes supporting yeast growth, comparison with control FIG. 11 [3, 9]: very substantially fewer tubes supporting yeast growth

Compound: O=C(O)CCCC1CCCCC1 [Cyclohexanebutyric acid]
- MIC [1, 6]: 68 µg/mL (≈ 399 µM)

Compound: COC(=O)OC(=O)OC [DMDC, Dimethyl dicarbonate]
- break down in aqueous environments [4]: breaks down rapidly
- efficacy against mould contamination [5]: inefficient

Compound: CCCCCCCCCC=O [Decanal]
- MIC [1, 6]: 47 µg/mL (≈ 301 µM)

Compound: CCCCCCCCCCO [Decanol]
- MIC [1, 6]: 24 µg/mL (≈ 152 µM)

Compound: C=C(C)C1CCC(C)C(O)C1 (stereo not drawn) [Dihydrocarveol]
- MIC (ppm) [1, 10]: 540 ppm

Compound: CCOC(=O)CCC1CCCCC1 [Ethyl cyclohexanepropionate]
- MIC [1, 6]: 184 µg/mL (≈ 998 µM)

Compound: CCOC(=O)C(C)=O [Ethyl pyruvate]
- MIC [1, 6]: 1390 µg/mL (≈ 12000 µM)
- MIC (ppm) [1, 7]: 1392 ppm

Compound: CC/C=C\CC1=C(C)CCC1=O [Jasmone]
- MIC [1, 6]: 246 µg/mL (≈ 1500 µM)

Compound: COC(=O)c1ccccc1N [Methyl anthranilate]
- MIC [1, 6]: 310 µg/mL (≈ 2050 µM)

Compound: CCCCCCCCC(=O)OC [Methyl nonanoate]
- MIC [1, 6]: 90 µg/mL (≈ 522 µM)

Compound: COC(=O)c1ccccc1O [Methyl salicylate]
- MIC [1, 6]: 152 µg/mL (≈ 999 µM)

Compound: CC1(C)C2CC=C(CO)C1C2 (stereo not drawn) [Myrtenol]
- tubes supporting yeast growth, comparison with control FIG. 1 [2, 9]: very substantially fewer tubes supporting yeast growth
- MIC (ppm) [1, 10]: 137 ppm
- MIC (ppm) [1, 7]: 137 ppm
- tubes supporting yeast growth, comparison with control FIG. 11 [3, 9]: very substantially fewer tubes supporting yeast growth

Compound: CC1CCC(C(C)C)C(O)C1 (stereo not drawn) [Neomenthol]
- MIC (ppm) [1, 10]: 156 ppm

Compound: CCCCCCCCC(=O)O [Nonanoic acid]
- MIC [1, 6]: 63 µg/mL (≈ 398 µM)

Compound: CCCCCCCC(=O)O [Octanoic acid (caprylic), Octanoic acid]
- MIC [1, 6]: 115 µg/mL (≈ 797 µM)

Compound: CC(=O)OCc1ccc2c(c1)OCO2 [Piperonyl acetate]
- tubes supporting yeast growth, comparison with control FIG. 1 [2, 9]: very substantially fewer tubes supporting yeast growth
- MIC [1]: 242 µg/mL
- MIC (ppm) [1, 7]: 242 ppm
- tubes supporting yeast growth, comparison with control FIG. 11 [3, 9]: very substantially fewer tubes supporting yeast growth

Compound: CCCOC(=O)c1ccccc1 [Propyl benzoate]
- MIC [1, 6]: 66 µg/mL (≈ 402 µM)

Compound: CC(C)=C1CC[C@@H](C)CC1=O [Pulegone]
- MIC [1, 6]: 152 µg/mL (≈ 998 µM)

Compound: CC=CC=CC=O [Sorbic aldehyde (2,4-hexadienal), 2,4-hexadienal]
- MIC [1, 6]: 86 µg/mL (≈ 895 µM)

Compound: CC1=CCC(O)(C(C)C)CC1 (stereo not drawn) [Terpinen-4-ol]
- MIC [1, 6]: 616 µg/mL (≈ 3990 µM)

Compound: CCCCCCCCCCC=O [Undecanal]
- MIC [1, 6]: 34 µg/mL (≈ 200 µM)

Compound: COc1cc(C=O)ccc1O [Vanillin]
- MIC [1, 6]: 1220 µg/mL (≈ 7990 µM)

Compound: COc1ccccc1C=CC=O [o-Methoxycinnamaldehyde]
- MIC [1, 6]: 130 µg/mL (≈ 802 µM)

Compound: CCCCC/C=C/C=C/C=O [trans, trans-2,4-Decadienal]
- tubes supporting yeast growth, comparison with control FIG. 1 ([2]; 15 ppm essential oil component): very substantially fewer tubes supporting yeast growth
- MIC [1, 6]: 8 µg/mL (≈ 52.5 µM)
- MIC (ppm) [1, 7]: 8 ppm
- tubes supporting yeast growth, comparison with control FIG. 11 ([3]; 15 ppm essential oil component): very substantially fewer tubes supporting yeast growth

Compound: C/C(C=O)=C\c1ccccc1 [α-Methyl-trans-cinnamaldehyde]
- MIC (ppm) [1, 10]: 58.4 ppm

Compound: CCCCCC1CCC(=O)O1 (stereo not drawn) [γ-Nonanoic lactone]
- MIC (ppm) [1, 10]: 63 ppm

Compound: CCCCCCCC1CCC(=O)O1 (stereo not drawn) [γ-Undecalactone]
- MIC (ppm) [1, 10]: 28 ppm

Compound: CCCC1CCCC(=O)O1 (stereo not drawn) [δ-Octalactone]
- MIC (ppm) [1, 10]: 568 ppm

Compound: Tolualdehyde
- MIC (ppm) [1, 10]: 240 ppm
